From patent publication US4030886A, “Saturation analysis” (The Radiochemical Centre Limited, priority 1973, dated 1977)
Read-outs that look alike come from different tables or passages of the source.

Tested on: antiserum raised in rabbit against estriol-6-CMO-BSA
Settings: 4 ng label, antiserum 1:200
Method: Into each assay tube was dispensed 0.1M phosphate buffer containing 5% human serum (pH 7.0; 200μl), antiserum raised in rabbit against estriol-6-CMO-BSA and diluted 1:200 in 0.1M Phosphate buffer containing 5% human serum (200μl), and selenomethionine-Se75 conjugate of estriol-6-CMO (4 ng; 400 mCi/m mol). Standard amounts of estriol (1.25 ng, 10 ng and 20 ng) in human serum were added to each assay tube; to one tube was added buffer instead of antiserum as a blank. The contents of each tube were mixed and incubated at room temperature for one hour. Ammonium sulphate solution was then added (5.4g (NH4)2 SO4 = 10 ml H2 O; 500 μl) and after mixing, the solutions were centrifuged. The supernatant was removed and the precipitate counted in a gamma counter. The percentage of total counts bound to the precipitate was calculated.

selenomethionine-Se75 conjugate of estriol-6-carboxymethyloxime
% of total counts bound minus blank (0 ng estriol added): 59.1%
% of total counts bound minus blank (1.25 ng estriol added): 55.3%
% of total counts bound minus blank (10 ng estriol added): 44.3%
% of total counts bound minus blank (20 ng estriol added): 39.0%
